US10039729B2, “Use of kukoamine A and kukoamine B” (Tianjin Chase Sun Pharmaceutical Co., Ltd., priority 2010, dated 2018)

Experiments:
[1] = system: RAW264.7 cells; assay: Semi-quantitative RT-PCR of TLR4, TLR9, MyD88 and western blot of NF-κB p65 in RAW264.7 cells; type: cell-based, murine; settings: KB 200 μM
Description: Reaction mixtures were added into 0.2 ml PCR tubes. The reaction mixture included 1 μl cDNA, 10.0 μl 2×Taq Master Mix, 1 μl upstream primer (10 μM), 1 μl downstream primer (10 μM) and 7 μl RNase-free H2O. PCR programs are as follows:
Finally, the PCR products were detected by agarose gel electrophoresis; 1% agarose gel was prepared and cast; 5 μl PCR products of each tube were loaded, electrophoresed at 100 v for 30 min; then gel was took out and scanned; the images were analysed by Quantity One software.
(2) Inhibition of KB on activation of NF-κB p65 in RAW264.7 cells induced by LPS and CpG DNA: Methods are as above; nucleoprotein extraction continued to be incubated for 1 h after sample loading; then, NF-κB p65 in it was assayed using westernblot; the procedure of nucleoprotein extraction and westernblot were consistent with embodiment 23.

[2] = system: RAW264.7 cells; assay: mRNA expression in RAW264.7 cells stimulated by LPS and CpG DNA (real-time PCR); type: cell-based, murine
Description: Cells preparation: Cells suspension was adjusted to 1×10^6/ml in DMEM supplemented with 10% (v/v) NCS; 2 ml of the above suspension was added into 6-well plates and cultured at 37° C. in a 5% CO2 humidified incubator for 2 h; for the purpose of experiment four groups were established: medium group, KB control group, stimulation group and KB treatment group; no reagent was added in medium group; KB control group was added with KB (200 μM); stimulation group was added with LPS (100 ng/ml) and CpG DNA (10 μg/ml); KB treatment group was added with KB (concentrations of 100 and 200 μM) in the meantime of adding LPS and CpG DNA; cells were cultured for 4 h and collected.
RNA extraction: Supernatant was sucked and discarded; 1 ml tripure was added into each well and resuspended with a pipet to make cells completely lysed; the lysate was transferred into 1.5 ml EP tube and incubated at room temperature for 5 min to ensure completed separation of ribonucleoprotein complex; 0.2 ml chloroform was added into EP tube; tube cap was closed and mixed by inversion for 15 sec; EP tube was incubated at room temperature for 10 min until layering of the liquid in tube, then centrifuged at 12000 g at 4_for 15 min; solution was separated into the three-phase; the upper solution (colorless liquid, approximately 0.4 ml) in EP tube was transferred into a new EP tube (DEPC treated); 0.5 ml isopropyl alcohol was added into EP tubes and the liquid was mixed by inversion for several times; EP tube was incubated at room temperature for 10 min to promote RNA precipitating, and centrifuged at 12000 g at 4_for 10 min; the supernatant was discarded; RNA precipitate was added with 1 ml 75% ethanol, vortex washed, and centrifuged at 12000 g at 4 for 10 min; then the supernatant was discarded; EP tube was dried at room temperature for 15 min to remove excessive ethanol; RNA precipitate was diluted with 20 μl ddH2O treated with DEPC, resuspended by pipetting in and out several times, incubated at 55 to 60 for 10 min, and then stored at −70.
Reverse transcription: Reverse-transcription reaction mixture (include: Rnase-free H2O, 10 μl; 5×RT buffer, 4 μl; dNTP mixture, 2 μl; RNase inhibitor, 1 μl; Oligo(dT)20, 1 μl; RNA, 1 μl; ReverTra Ace, 1 μl) was prepared on ice bath, mixed, incubated at 42° C. for 1 h and at 99° C. for 5 min, stored at −20.
PCR amplification: Primers were designed using Primer Premier 5 software by ourselves, and synthesized by Shanghai Sangon Biological Engineering Technology & Services Co., Ltd. The relevant primer sequences are as follows […]
Results were expressed as CT value, and converted into ratio of β-actin, the internal reference items, according to 2^−ΔΔCT methods. […]

NCCCN(CCCCNCCCNC(=O)CCc1ccc(O)c(O)c1)C(=O)CCc1ccc(O)c(O)c1 [KB, Kukoamine B]
up-regulated expression of TLR4, TLR9 and MyD88 stimulated by LPS and CpG DNA ([1]; 4 h, semi-quantitative RT-PCR): inhibited up-regulated expression
up-regulation of NF-κB p65 in RAW264.7 cell nucleus induced by LPS and CpG DNA ([1]; LPS 100 ng/ml, CpG DNA 10 μg/ml, western blot): inhibit the up-regulation of NF-κB p65
mRNA expressions of TNF-α, IL-6, iNOS and COX-2 up-regulated by CpG DNA ([2]; 100, 200 μM, CpG DNA 10 μg/ml, 4 h, dose-dependent): significantly inhibit the mRNA expressions
mRNA expressions of TNF-α, IL-6, iNOS and COX-2 up-regulated by LPS ([2]; 100, 200 μM, LPS 100 ng/ml, 4 h, dose-dependent): significantly inhibit the mRNA expressions
up-regulated expression of TLR4 induced by LPS and CpG DNA ([2]; KB 100 and 200 μM, RT-PCR): significantly inhibited
up-regulated expression of TLR9 induced by LPS and CpG DNA ([2]; KB 100 and 200 μM, RT-PCR): significantly inhibited
